Data taken from PMC6017357, “In Vitro Inhibitory Effects of Synthetic Cannabinoid EAM-2201 on Cytochrome P450 and UDP-Glucuronosyltransferase Enzyme Activities in Human Liver Microsomes” (Molecules : A Journal of Synthetic Chemistry and Natural …, 2018).

Target: T1, CYP2A6 (Homo sapiens, UniProt P11509)
T1 construct: from tissue; host or cells: ultrapooled human liver microsomes
T1 sequence (P11509 1-494): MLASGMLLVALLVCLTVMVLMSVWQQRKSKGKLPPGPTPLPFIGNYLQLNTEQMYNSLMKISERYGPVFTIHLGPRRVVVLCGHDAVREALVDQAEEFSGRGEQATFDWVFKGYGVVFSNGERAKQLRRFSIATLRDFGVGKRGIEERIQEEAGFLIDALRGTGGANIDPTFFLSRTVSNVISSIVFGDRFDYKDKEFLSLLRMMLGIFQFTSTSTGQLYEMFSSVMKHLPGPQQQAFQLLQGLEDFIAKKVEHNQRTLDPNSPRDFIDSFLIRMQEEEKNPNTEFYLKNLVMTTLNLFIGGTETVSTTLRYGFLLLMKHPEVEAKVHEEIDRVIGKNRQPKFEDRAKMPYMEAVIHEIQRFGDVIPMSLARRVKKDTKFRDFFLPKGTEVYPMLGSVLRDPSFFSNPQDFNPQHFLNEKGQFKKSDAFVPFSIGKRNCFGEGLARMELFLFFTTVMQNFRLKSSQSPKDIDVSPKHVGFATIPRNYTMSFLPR
Experiment: CYP2A6-mediated coumarin 7-hydroxylation in pooled human liver microsomes
Type: in vitro ADME
Details: up to 50 µM, without 30-min preincubation
Procedure: The inhibitory potential (IC50 values) of EAM-2201 on CYP1A2, CYP2A6, CYP2C8, CYP2C9, CYP2C19, CYP2D6 and CYP3A4 were evaluated using ultrapooled human liver microsomes and a cocktail of seven CYP substrates followed by LC-tandem mass spectrometry (LC-MS/MS) as previously described. […] Aliquots (5 µL) of the diluted supernatants were analyzed using LC-MS/MS. […]
The metabolites formed from CYP substrates were simultaneously quantified using our previously described LC-MS/MS method. […] Quantification was performed by selected reaction monitoring (SRM) of the [M + H]^+ ion and the related product ion for each metabolite: acetaminophen, 152.1 > 110.3; N-desethylamodiaquine, 328.1 > 283.0; 7-hydroxycoumarin, 163.0 > 107.2; 4-hydroxybupropion, 256.1 > 238.0; 4′-hydroxydiclofenac, 312.0 > 231.1; 4′-hydroxy-mephenytoin, 235.1 > 150.1; 1′-hydroxybufuralol, 278.1 > 186.1; 1′-hydroxymidazolam, 341.9 > 324.0; ^13C2,^15N-acetaminophen, 155.1 > 111.2; and d9-1′-hydroxybufuralol, 287.2 > 187.0. […]

CCc1ccc(C(=O)c2cn(CCCCCF)c3ccccc23)c2ccccc12 [EAM-2201, (4-ethyl-1-naphthalenyl)[1-(5-fluoropentyl)-1H-indol-3-yl]-methanone]
inhibition of CYP2A6-mediated coumarin 7-hydroxylation: negligibly inhibited
